Consider one compound from US20020077355A1, “Use of epoxyeicosatrienoic acids in the treatment of cerebrovascular conditions” (priority 2000, published 2002).

Structures are written as SMILES. Several values for one entry are separate records, joined by “and”; a condition that tells them apart may be missing. Equal values may be shown once.

For assay [1], the system named is mice subjected to middle cerebral artery occlusion. Briefly: Focal cerebral ischemia by middle cerebral artery occlusion, infarct volume. As to conditions: for Infarct Volume, individual animal / Infarct Volume, Mean: mice, MCA occlusion; for Infarct Volume, individual animal: 24 hours. The format is in vivo. The text has this: Young adult male mice (C57B1/J6, Jackson Laboratories) weighing 20-25 g, were given free access to food and water prior to experimentation.
(§1) Ischemia was produced by occluding the left middle cerebral artery (MCA) with a silicon-coated 8-0 nylon monofilament under anesthesia as described (Huang, Z et al., J Cereb Blood Flow Metab, 1996, 16:981-987, Huang, Z et al., Science, 1994, 265:1883-1885, Hara, H et al., J Cereb Blood Flow Metab, 1997, 1:515-526). Arterial blood pressure, heart rate, arterial oxygen pressure, and partial pressure of carbon dioxide were monitored as described (Huang, Z et al., J Cereb Blood Flow Metab, 1996, 16:981-987, Huang, Z et al., Science, 1994, 265:1883-1885, Hara, H et al., J Cereb Blood Flow Metab, 1997, 1:515-526).
11,12 EET (Sigma Chemical Co., St Louis, Mo.) or vehicle was administered by an infusion pump (Harvard Apparatus, South Natick, Mass.) with a tethering device (Instech, Plymouth Meeting, Pa.) into the femoral vein at the rate of 0.2 ml/hour for 2 hours beginning after the onset of ischemia to deliver a dose of 30, 100, and/or 300 μg/kg/hour. Control animals received the equivalent amount of vehicle alone. During infusion, the anesthesia was discontinued. […] After infusion, the animals were re-anesthetized with halothane and the venous catheter was removed. The filaments were withdrawn after 2 hours and after 24 hours, and mice were sacrificed. Brains were divided into five coronal 2-mm sections using a mouse brain matrix (RBM-200C, Activated Systems, Ann Arbor, Mich., USA). Infarction volume was quantitated with an image analysis system (M4, St. Catharines, Ontario, Canada) on 2% 2,3,5-triphenyltetrazolium chloride (Sigma Chemical Co., St Louis, Mo.) stained 2-mm slices.
(§2) Data is expressed as means ±SE. Statistical evaluation was performed by Student's t-test to compare infarct volumes between groups. Analysis of variance with repeated measures followed by Dunnett's t-test was used to test the significance of rCBF and resistance changes between groups. p<0.05 was considered statistically significant.

For assay [2], the system named is regional cerebral blood flow (rCBF) in mice. Briefly: Regional cerebral blood flow by laser Doppler flowmetry after MCA occlusion. Type of assay: in vivo. The protocol: In a separate set of ventilated, halothane-anesthetized animals, regional cerebral blood flow (rCBF) was determined at the margins (“penumbra”) of ischemic infarcts using laser Doppler flowmetry (Perimed, PF-2B, Stockholm, Sweden) and recorded on a MacLab/8 data acquisition system (AD Instruments, Milford, Mass.). the left femoral artery and vein were cannulated for blood pressure measurement, blood gas determination and drug administration, a fiberoptic probe (Perimed PF-319:2, diameter=0.5 mm) was fixed to the skull, 4 mm lateral and 2 mm posterior to bregma on the ipsilateral hemisphere and away from large pial vessels. This coordinate identifies the site on the convex brain surface within the vascular territory supplied by the distal segment of the MCA (Huang, Z et al., Science, 1994, 265:1883-1885; Yang, G et al., Stroke, 1994, 25:165-70). rCBF was recorded continuously before, during and after MCA occlusion. The mean values after MCA occlusion and before administration were taken as baseline, and the data thereafter were expressed as percentages of the baseline value. The percent change in cerebrovascular resistance was calculated using the following formula: Δ%R=Δ% MABP/Δ% rCBF, where Δ% MABP is percent change in mean arterial blood pressure.
as §2
Physiological variables during laser-Doppler flowimetry in anesthetized, ventilated, EET-treated and vehicle-treated mice are shown in FIGS. 2 and 3. Values are reported as mean +/− SEM. CBF denotes cerebral blood flow; MABP indicates mean arterial blood pressure.
FIG. 2 is a graph showing regional CBF changes in EET-treated and vehicle-treated mice for 80 min after EET (300 μg/kg total dose) or vehicle infusion at a constant rate of 100 μl/kg/min over 20 min. Error bars denote standard error of the mean (SEM); CBF change with baseline control was determined by one-way ANOVA followed by Fisher's protected least-squares difference test. The increase in rCBF began at 5-10 minutes and achieved statistical significance at 10-15 minutes after infusion. Maximum values achieved at 40-60 min reached 50% above baseline levels.

The subject of assay [3] is rat cerebellar granule cell (CGC) cultures. Briefly: Dihydroethidine study to monitor intracellular superoxide production. Type of assay: cell-based. As to conditions: CGC cultures during H2O2 treatment, 11,12-EET 1.2 μM. On the procedure:
(§3) Cerebellar cortices of postnatal day 7 rat pups were isolated, incubated in 0.25% trypsin for 20 min and triturated with a 10-cc Falcon pipette. Cells were plated on Falcon plastic dishes ˜100,000 cells/cm^2 in BME medium containing 25 mM KCl. Cell cultures were maintained in a humidified 5% CO2 /37° C. incubator. 10 μM AraC was added from day 2-3 in vitro to suppress glial proliferation. Cells were studied at day 7-8 in vitro.
Dihydreothidine study to monitor intracellular superoxide production: 10 μl of dihydroethidine stock solution (1 mg/cc) in dimethylsulfoxide (DMSO) and 4 μl of H2O2 were added to 4cc of Eagle's Basal Medium (medium A). Each 2-cm^2 well of containing neuronal cell culture was preincubated with 11.12-EET (1.2 μM) for an hour and was replaced with 250 μL of medium A in the presence or absence of 11,12-EET (1.2 μM). […]
(§4) To test the effects of EET during oxidative stress, rat cerebellar granule cell (CGC) cultures were subjected to H2O2 treatment (225 μM for 10 min.). Less apoptosis was found at 24 hour when 11,12-EET (1.2 μM) was present compared to cell culture without 11,12-EET (51.7% vs. 87.6% respectively, p<0.01, scored by Hoechst stain for nuclear condensation). In addition, superoxide production (as monitored by oxidation of dihydroethidine) was decreased when 11,12-EET was present in CGC cultures during H2O2 treatment.

The test system of assay [4] is mean arterial blood pressure (MABP) in mice. Put plainly: Mean arterial blood pressure in animals with focal cerebral ischemia. Type of assay: in vivo. The conditions noted are these: FIG. 3.
Description: as §1
In a separate set of ventilated, halothane-anesthetized animals, regional cerebral blood flow (rCBF) was determined at the margins (“penumbra”) of ischemic infarcts using laser Doppler flowmetry (Perimed, PF-2B, Stockholm, Sweden) and recorded on a MacLab/8 data acquisition system (AD Instruments, Milford, Mass.). the left femoral artery and vein were cannulated for blood pressure measurement, blood gas determination and drug administration, a fiberoptic probe (Perimed PF-319:2, diameter=0.5 mm) was fixed to the skull, 4 mm lateral and 2 mm posterior to bregma on the ipsilateral hemisphere and away from large pial vessels. […]

The subject of assay [5] is rat cerebellar granule cell (CGC) cultures. Briefly: H2O2 oxidative stress, apoptosis scored by Hoechst stain for nuclear condensation. Type of assay: cell-based. As to conditions: H2O2 225 μM for 10 min, 11,12-EET 1.2 μM present; without 11,12-EET 87.6%; p<0.01. The protocol:
as §3, §4

For `CCCCC/C=C\CC1OC1C/C=C\C/C=C\CCCC(=O)O` (stereo not drawn) [EET, 11,12-epoxyeicosatrienoic acid], the “Reduction of infarct volume in comparison to vehicle-treated animals” value in assay [1] (300 μg/kg group, n=7, p<0.05) was “at least 41%”. For the same compound, the “Infarct volume, of hemispheric volume” value in assay [1] (300 μg/kg group, n=7, vehicle 34±3, means ±SE) was 20±3. Moreover, the “Infarct Volume, individual animal” value in assay [1] (EET 30 μg/kg i.v. infusion) is 32.4 mm^3 and 43.0 mm^3 and 41.9 mm^3 and 27.7 mm^3 and 37.4 mm^3 and 23.7 mm^3; in assay [1] (EET 100 μg/kg i.v. infusion), 34.1 mm^3 and 37.6 mm^3 and 22.4 mm^3 and 16.3 mm^3 and 24.5 mm^3 and 38.6 mm^3 and 11.8 mm^3; in assay [1] (EET 300 μg/kg i.v. infusion), 32.5 mm^3 and 13.4 mm^3 and 13.1 mm^3 and 28.3 mm^3 and 11.8 mm^3 and 25.6 mm^3 and 13.6 mm^3. For the same compound, the “Infarct Volume, Mean” value was 34.3 mm^3 in assay [1] (EET 30 μg/kg, n=6); 26.5 mm^3 in assay [1] (EET 100 μg/kg, n=7); 19.7 mm^3 in assay [1] (EET 300 μg/kg, n=7). In addition, in assay [2] (300 μg/kg i.v.), the “Time at which the increase in rCBF began” value lay in the range of 5 to 10 min. In addition, the “Effect on rCBF in parietal cortex” value in assay [2] (300 μg/kg i.v. total dose infused over 20 min, vehicle did not increase rCBF) is given as “increased rCBF”. The “Time at which the rCBF increase achieved statistical significance” value in assay [2] (300 μg/kg i.v., after infusion) fell in the range of 10 to 15 min. The “Maximum rCBF above baseline levels” value in assay [2] (300 μg/kg i.v., at 40-60 min) turned out to be 50%. Besides, the “Superoxide production (oxidation of dihydroethidine)” value in assay [3] is reported as “decreased”. Besides, the “Change in MABP, EET-treated vs. vehicle-treated animals” value in assay [4] was “No significant changes”. Also, the “Apoptosis at 24 hour” value in assay [5] amounted to 51.7%.
